The values below come from US20240008473A1, “DEVICE AND METHOD TO DISTRIBUTE AIR TREATMENT SUBSTANCE” (Discovery Purchaser Corporation, priority 2020, published 2024).

The conditions of data set [1]: 25° C.; cited from earlier work.
A short description of data set [2]: TGA (thermogravimetric analysis) measurements on TFL technical. The class given is physicochemical. As for the experimental part:
TGA (Thermogravimetric analysis) measurements were performed on TFL technical (release profile measurements done at isothermal (55° C.) and at constant temperature increase ratio (3K/mn)), and from that, it was discovered that release kinetic at “usual” candle melting temp (50-70° C.) would not allow enough TFL release to get expected efficacy, and that TFL release is not linear. It was determined as well that release onset for TFL is around 100° C. and far higher release ratio occurs at higher temperatures. The calculated estimated ideal temperature for TFL, for outdoor use, from the TGA measurement would be around 150° C.
TGA (Thermal Gravimetric Analysis) for TFL was run, which allows characterization of the release profile of an active ingredient as a function of the temperature. […] Thus, TFL release was pretty low in the range of the “usual candle wax melting temperature”, and it was not be possible to get the needed release rate. (which is the reason why TFL was mainly burnt before being released when incorporated directly into a candle). At such a temperature range, it would hardly possible (considering the potential TFL loading into the candle and candle size) to reach a release above 2-3 mg/h which is far below our 20-25 mg/h needed for outdoor use. • Based on the TGA measurement, it can be seen that to reach the desired 25 mg/h release rate for TFL, the pod temp should be >130-140° C.
(before a typical flame temperature). […] This amount is much lower than the desired 25 mg/h release rate.

[3] abbreviates: 15 mg flakes, temperature ramp 3K/min, continuous N2-flow.

For the compound `C#CCN1CC(=O)N(COC(=O)[C@@H]2C(C=C(C)C)C2(C)C)C1=O` (mixture of isomers) [Imiprothrin], in data set [1], the Vapor pressure is 1.85 mPa @25 °C.
`C#CC(OC(=O)C1C(C=C(C)C)C1(C)C)/C(C)=C/CC` (centres unmarked) [Empenthrin]: the Vapor pressure in data set [1] was 15.4 mPa @25 °C.
In the case of `C/C=C/C1C(C(=O)OCc2c(F)c(F)c(COC)c(F)c2F)C1(C)C` (centres unmarked) [Metofluthrin], the Vapor pressure in data set [1] is 1.96 mPa @25 °C.
Take `C#CCC1=C(C)C(OC(=O)C2C(C=C(C)C)C2(C)C)CC1=O` (centres unmarked) [Prallethrin]: the Vapor pressure in data set [1] is 0.6 mPa @25 °C.
As to `CC=CC1C(C(=O)OCc2c(F)c(F)c(C)c(F)c2F)C1(C)C` (centres unmarked) [Profluthrin], in data set [1], the Vapor pressure is 10.3 mPa @25 °C.
With `CC1(C)[C@H](C=C(Cl)Cl)[C@H]1C(=O)OCc1c(F)c(F)cc(F)c1F` [TFL, Transfluthrin], in data set [2] (setting [3]), the complete evaporation is 255 °C and the onset of evaporation result was “around 100 °C”. Besides, in data set [2] (50-80° C., TFL loaded into candle), the “reachable release at usual candle wax melting temperature” value was in the range of 2 to 3 mg/h. For the same compound, the “release onset for TFL” value in data set [2] (TGA on TFL technical, isothermal (55° C.) and 3K/mn ramp) is “around 100 °C”. Also, in data set [2] (TGA, FIG. 9A), the “active ingredient release below 100-110° C.” value is “very little release”. In data set [2] (at 55° C. candle melting temperature, TGA conditions), this compound displayed a TFL evaporation rate below 0.03 mg/h. Besides, the “pod temp to reach the desired 25 mg/h release rate” value in data set [2] (based on the TGA measurement) is 130-140 °C. The Vapor pressure in data set [1] was 2 mPa @25 °C.
For the compound `CC(C)=CC1C(C(=O)OCN2C(=O)C3=C(CCCC3)C2=O)C1(C)C` (centres unmarked) [Tetramethrin], the Vapor pressure in data set [1] is 2.11 mPa @25 °C.
